Key:
GSPT1 = GSPT1 (Homo sapiens (Human), UniProt P15170+Q96SW2); experiment: Western blot, substrate protein expression in hPBMC: GSPT1; format: cell-based; conditions: for substrate protein remaining % GSPT1: hPBMC, compound 500 nM, 24 hours, Western blot; for concentration at which GSPT1 protein was clearly/significantly degraded (Western blot, FIG. 1): hPBMCs
Procedure, shortened: (§1)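 hPBMC, 1×10^6 cells/mL, 24 h compound exposure; RIPA lysis, BCA protein assay, SDS-PAGE, NC membrane immunoblot. Densitometry vs internal control → % protein remaining; degradation % = 100% − remaining; DC50 = conc. at 50% of DMSO band signal.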

IKZF3 = IKZF3 (Homo sapiens (Human), UniProt Q96SW2+Q9UKT9); experiment: Western blot, substrate protein expression in hPBMC: IKZF3; format: cell-based; conditions: for substrate protein remaining % IKZF3: hPBMC, compound 500 nM, 24 hours, Western blot; for concentration at which IKZF3 protein was significantly degraded (Western blot, FIG. 1): hPBMCs
Sequence of IKZF3 (Q9UKT9 whole entry): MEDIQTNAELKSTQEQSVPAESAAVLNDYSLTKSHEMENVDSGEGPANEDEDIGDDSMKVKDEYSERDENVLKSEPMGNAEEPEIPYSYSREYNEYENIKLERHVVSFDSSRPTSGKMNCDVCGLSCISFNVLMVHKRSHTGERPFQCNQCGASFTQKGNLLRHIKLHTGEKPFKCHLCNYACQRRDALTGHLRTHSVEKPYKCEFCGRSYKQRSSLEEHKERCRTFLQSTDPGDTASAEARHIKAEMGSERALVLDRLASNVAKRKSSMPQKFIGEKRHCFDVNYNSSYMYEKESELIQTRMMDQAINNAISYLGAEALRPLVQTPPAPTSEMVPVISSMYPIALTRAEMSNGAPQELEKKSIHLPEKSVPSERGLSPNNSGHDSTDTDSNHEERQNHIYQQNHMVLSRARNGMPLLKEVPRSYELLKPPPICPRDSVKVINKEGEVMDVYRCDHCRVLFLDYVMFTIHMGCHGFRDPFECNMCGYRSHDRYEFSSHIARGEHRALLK
Sequence of IKZF3 (Q96SW2 whole entry): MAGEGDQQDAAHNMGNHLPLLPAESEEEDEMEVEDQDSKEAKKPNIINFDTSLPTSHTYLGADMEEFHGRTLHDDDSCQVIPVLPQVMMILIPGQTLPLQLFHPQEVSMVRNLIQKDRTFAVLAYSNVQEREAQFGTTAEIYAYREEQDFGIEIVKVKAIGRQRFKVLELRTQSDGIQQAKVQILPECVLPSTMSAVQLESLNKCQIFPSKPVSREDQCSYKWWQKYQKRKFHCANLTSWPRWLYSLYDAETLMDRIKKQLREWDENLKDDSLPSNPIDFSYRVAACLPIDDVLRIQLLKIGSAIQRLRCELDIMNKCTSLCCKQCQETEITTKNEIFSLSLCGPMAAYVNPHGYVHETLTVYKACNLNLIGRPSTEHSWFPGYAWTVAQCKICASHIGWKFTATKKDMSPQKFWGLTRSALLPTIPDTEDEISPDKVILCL
Sequence of IKZF3 (Q16531 whole entry partner): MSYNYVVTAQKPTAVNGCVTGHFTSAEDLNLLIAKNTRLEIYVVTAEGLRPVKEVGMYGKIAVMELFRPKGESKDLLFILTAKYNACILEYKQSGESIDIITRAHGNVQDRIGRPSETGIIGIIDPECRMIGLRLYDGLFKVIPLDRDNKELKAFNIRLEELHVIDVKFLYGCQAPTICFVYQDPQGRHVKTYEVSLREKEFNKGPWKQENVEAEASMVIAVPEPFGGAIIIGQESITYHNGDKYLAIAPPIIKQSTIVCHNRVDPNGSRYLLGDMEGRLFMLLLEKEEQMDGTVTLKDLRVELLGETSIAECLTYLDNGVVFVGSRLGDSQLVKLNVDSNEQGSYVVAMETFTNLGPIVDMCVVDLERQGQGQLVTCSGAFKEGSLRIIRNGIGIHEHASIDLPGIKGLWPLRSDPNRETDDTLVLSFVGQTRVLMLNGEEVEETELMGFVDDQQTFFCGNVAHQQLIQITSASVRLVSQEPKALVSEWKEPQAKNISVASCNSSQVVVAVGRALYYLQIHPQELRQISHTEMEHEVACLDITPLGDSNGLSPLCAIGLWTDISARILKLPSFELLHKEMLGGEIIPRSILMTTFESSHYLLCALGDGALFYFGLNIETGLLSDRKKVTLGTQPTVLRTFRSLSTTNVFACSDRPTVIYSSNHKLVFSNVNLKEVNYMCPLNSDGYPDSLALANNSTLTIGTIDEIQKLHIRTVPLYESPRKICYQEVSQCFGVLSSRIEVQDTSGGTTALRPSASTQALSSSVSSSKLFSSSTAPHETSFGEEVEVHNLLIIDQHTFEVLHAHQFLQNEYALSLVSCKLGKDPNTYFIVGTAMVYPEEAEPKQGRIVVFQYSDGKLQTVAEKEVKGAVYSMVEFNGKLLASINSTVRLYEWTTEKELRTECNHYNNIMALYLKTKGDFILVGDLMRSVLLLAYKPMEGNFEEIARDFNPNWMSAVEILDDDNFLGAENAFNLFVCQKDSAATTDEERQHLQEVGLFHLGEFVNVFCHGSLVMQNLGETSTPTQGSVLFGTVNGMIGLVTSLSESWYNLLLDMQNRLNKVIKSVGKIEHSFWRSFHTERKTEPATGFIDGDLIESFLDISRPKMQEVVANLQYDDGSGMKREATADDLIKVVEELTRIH
Procedure, shortened: as §1

IKZF1 = IKZF1 (Homo sapiens (Human), UniProt Q13422+Q96SW2); experiment: Western blot, substrate protein expression in hPBMC: IKZF1; format: cell-based; conditions: for substrate protein remaining % IKZF1: hPBMC, compound 500 nM, 24 hours, Western blot; for concentration at which IKZF1 protein was significantly degraded (Western blot, FIG. 1): hPBMCs
Sequence of IKZF1 (Q13422 whole entry): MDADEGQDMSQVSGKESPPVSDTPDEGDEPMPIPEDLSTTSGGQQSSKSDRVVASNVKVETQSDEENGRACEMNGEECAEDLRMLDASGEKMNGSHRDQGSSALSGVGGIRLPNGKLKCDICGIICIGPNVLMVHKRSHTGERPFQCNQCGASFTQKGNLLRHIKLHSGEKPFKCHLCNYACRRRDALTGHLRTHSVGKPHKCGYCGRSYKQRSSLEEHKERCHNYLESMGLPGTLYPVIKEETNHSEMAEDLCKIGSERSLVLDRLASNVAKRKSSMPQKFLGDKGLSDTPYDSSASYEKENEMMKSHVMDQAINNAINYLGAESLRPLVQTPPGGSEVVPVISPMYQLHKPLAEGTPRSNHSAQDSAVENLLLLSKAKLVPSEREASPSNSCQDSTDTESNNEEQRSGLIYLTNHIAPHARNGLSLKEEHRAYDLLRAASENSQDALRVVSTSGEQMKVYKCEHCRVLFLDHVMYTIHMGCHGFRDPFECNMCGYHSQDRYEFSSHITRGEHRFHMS
Sequence of IKZF1 (Q96SW2 whole entry): as the sequence (Q96SW2 whole entry) above
Sequence of IKZF1 (Q16531 whole entry partner): as the sequence (Q16531 whole entry partner) above
Procedure, shortened: as §1

[1] = tested on: TMD8 cells (human diffuse large B-cell lymphoma cells); experiment: Tumor cell proliferation inhibition, CCK-8; format: cell-based; conditions: TMD8 cells, CCK-8, read-out: inhibitory activity (IC50, nM) TMD8
Procedure: (§2) The tumor cells used herein were cultured in a cell culture medium listed in table 2 at 37° C. in an incubator with 5% CO2. Prior to experimentation, all cells used were correctly identified by STR profiling, and tested negative for mycoplasma through routine screenings.
(§3) IC50 values of the compounds of the present disclosure (including the compounds in Table 1 and the Examples 1-305 compounds) were measured using the Meilun Cell Counting Kit-8 kit from Dalian Meilun Biotech Co., Ltd. Assay details are as follows: tumor cells were seeded in a 96-well plate at a density listed in Table 5. After 24 h, 100 μL of the inoculated cells were treated with 0.5 μL of the compounds of the present disclosure (including the compounds in Table 1 and the Examples 1-305 compounds) at 10 different successively decreasing concentrations (starting at the highest concentration of 10 μM; 5-fold serial dilutions). After the cells were treated with the compounds of the present disclosure for a period of time, the cell viability detection reagent was added to the culture medium for cell viability assessment according to the instructions provided with the CCK-8 kit. […] The growth inhibition of the compounds of the present disclosure on cells was plotted by Prism Graphpad software, and the IC50 values of the compounds of the present disclosure were calculated therefrom.

[2] = tested on: MM.1S cells (human multiple myeloma cells); experiment: Tumor cell proliferation inhibition, CCK-8; format: cell-based; conditions: MM1.S, MM.1S cells, CCK-8, read-out: inhibitory activity (IC50, nM) MM.1S
Procedure: as §2, §3

[3] = tested on: H146 cells (human small cell lung carcinoma cells); experiment: Tumor cell proliferation inhibition, CCK-8; format: cell-based; conditions: NCI-H146, H146 cells, CCK-8, read-out: inhibitory activity (IC50, nM) H146
Procedure: as §2, §3

[4] = tested on: MDA-MB-231 cells (human breast adenocarcinoma cells); experiment: Tumor cell proliferation inhibition, CCK-8; format: cell-based; conditions: MDA-MB-231 cells, CCK-8, read-out: inhibitory activity (IC50, nM) MDA-MB-231
Procedure: as §2, §3

[5] = biological target: human Cereblon WT GST-tagged protein (Homo sapiens (Human), UniProt Q96SW2); experiment: CRBN-binding affinity, HTRF (CEREBLON BINDING kit, CISBIO); conditions: HTRF inhibitory activity
Sequence of human Cereblon WT GST-tagged protein (Q96SW2 whole entry): as the sequence (Q96SW2 whole entry) above
Procedure, shortened: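 HTRF competition format: test compound displaces Thalidomide-Red from GST-tagged human Cereblon WT, detected with a Eu-labelled anti-GST antibody. Percent CRBN binding inhibition was derived from the 620 nm signal, normalized to solvent-control and protein-free blank wells.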

Sequence of GSPT1 (P15170 whole entry): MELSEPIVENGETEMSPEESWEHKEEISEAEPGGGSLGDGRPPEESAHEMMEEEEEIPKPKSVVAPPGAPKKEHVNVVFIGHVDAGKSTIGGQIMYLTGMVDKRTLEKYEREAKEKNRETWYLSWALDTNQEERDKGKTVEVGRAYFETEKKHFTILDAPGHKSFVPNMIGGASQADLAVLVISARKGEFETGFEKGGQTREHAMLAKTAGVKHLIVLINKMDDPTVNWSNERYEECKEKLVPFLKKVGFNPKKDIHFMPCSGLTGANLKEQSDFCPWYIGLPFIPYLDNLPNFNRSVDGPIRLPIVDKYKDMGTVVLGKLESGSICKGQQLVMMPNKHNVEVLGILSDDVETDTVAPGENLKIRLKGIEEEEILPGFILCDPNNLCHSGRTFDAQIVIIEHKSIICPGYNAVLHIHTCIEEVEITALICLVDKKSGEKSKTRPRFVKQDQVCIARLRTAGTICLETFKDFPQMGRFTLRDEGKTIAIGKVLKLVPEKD
Sequence of GSPT1 (Q96SW2 whole entry): as the sequence (Q96SW2 whole entry) above
Sequence of GSPT1 (Q16531 whole entry partner): as the sequence (Q16531 whole entry partner) above

Structure (SMILES) | substrate protein remaining % GSPT1 (GSPT1) | concentration at which GSPT1 protein was clearly/significantly degraded (Western blot, FIG. 1) (GSPT1) | substrate protein remaining % IKZF3 (IKZF3) | concentration at which IKZF3 protein was significantly degraded (Western blot, FIG. 1) (IKZF3) | substrate protein remaining % IKZF1 (IKZF1) | concentration at which IKZF1 protein was significantly degraded (Western blot, FIG. 1) (IKZF1) | IC50 [1] [nM] | IC50 [2] [nM] | IC50 [3] [nM] | IC50 [4] [nM] | IC50 [5] [nM]
O=C1CCC(N2Cc3cc(CN4CCC(N(c5ccccc5)c5ccccn5)CC4)ccc3C2=O)C(=O)N1 (centres unmarked) [GT-04525, 3-(1-oxo-5-((4-(phenyl(pyridin-2-yl)amino)piperidin-1-yl)methyl)isoindolin-2-yl)piperidine-2,6-dione] | A (A represents 0% ≤ substrate protein remaining % ≤ 50%) | below 50 nM | A (A represents 0% ≤ substrate protein remaining % ≤ 50%) | below 50 nM | A (A represents 0% ≤ substrate protein remaining % ≤ 50%) | below 50 nM | 1 to 10 | < 1 | 1 to 10 | 1 to 10 | < 500
O=C1CCC(N2C(=O)c3ccc(CN4CCC(N(c5ccccc5)c5ccccc5)CC4)cc3C2=O)C(=O)N1 (centres unmarked) [GT-05741, 2-(2,6-dioxopiperidin-3-yl)-5-((4-(diphenylamino)piperidin-1-yl)methyl) isoindoline-1,3-dione] | A (A represents 0% ≤ substrate protein remaining % ≤ 50%) |  | A (A represents 0% ≤ substrate protein remaining % ≤ 50%) |  | A (A represents 0% ≤ substrate protein remaining % ≤ 50%) |  |  | 10 to 50 | 50 to 100 | 100 to 500 | 
O=C1CCC(N2Cc3c(ccc(CN4CCC(N(c5ccccc5)c5ccccn5)CC4)c3F)C2=O)C(=O)N1 (centres unmarked) [GT-05856, 3-(4-fluoro-1-oxo-5-((4-(phenyl(pyridin-2-yl)amino)piperidin-1-yl)methyl)isoindolin-2-yl)piperidine-2,6-dione] | A (A represents 0% ≤ substrate protein remaining % ≤ 50%) | below 50 nM | A (A represents 0% ≤ substrate protein remaining % ≤ 50%) | below 50 nM | A (A represents 0% ≤ substrate protein remaining % ≤ 50%) | below 50 nM | 1 to 10 | < 1 | 1 to 10 | 1 to 10 | < 500
O=C1CCC(N2Cc3cc(CN4CCC(N(c5ccccc5)c5ccccn5)CC4)c(F)cc3C2=O)C(=O)N1 (centres unmarked) [GT-05857, 3-(6-fluoro-1-oxo-5-((4-(phenyl(pyridin-2-yl)amino)piperidin-1-yl)methyl)isoindolin-2-yl)piperidine-2,6-dione] | A (A represents 0% ≤ substrate protein remaining % ≤ 50%) | below 50 nM | A (A represents 0% ≤ substrate protein remaining % ≤ 50%) | below 50 nM | A (A represents 0% ≤ substrate protein remaining % ≤ 50%) | below 50 nM | 1 to 10 | < 1 | 1 to 10 | 1 to 10 | < 500
O=C1CCC(N2Cc3cc(N4C5CCC4CN(C(c4ccccc4)c4ccccc4)C5)ccc3C2=O)C(=O)N1 (centres unmarked) [GT-05866, 3-(5-(3-benzhydryl-3,8-diazabicyclo[3.2.1]octan-8-yl)-1-oxoisoindolin-2-yl)piperidine-2,6-dione] | A (A represents 0% ≤ substrate protein remaining % ≤ 50%) |  | A (A represents 0% ≤ substrate protein remaining % ≤ 50%) |  | B (B represents substrate protein remaining % > 50%) |  | 50 to 100 | 1 to 10 | 10 to 50 | 10 to 50 | 500 to 1000
O=C1CCC(N2Cc3cc(CN4CC5CN(C(c6ccccc6)c6ccccc6)CC5C4)c(F)cc3C2=O)C(=O)N1 (centres unmarked) [GT-06051, 3-(5-((5-benzhydrylhexahydropyrrolo[3,4-c]pyrrol-2 (1H)-yl)methyl)-6-fluoro-1-oxoisoindolin-2-yl)piperidine-2,6-dione] | A (A represents 0% ≤ substrate protein remaining % ≤ 50%) |  | B (B represents substrate protein remaining % > 50%) |  | B (B represents substrate protein remaining % > 50%) |  |  | 50 to 100 | 100 to 500 |  | 500 to 1000
O=C1CCC(N2Cc3cc(C(=O)N4CCN(C(c5ccccc5F)c5ccccc5F)CC4)ccc3C2=O)C(=O)N1 (centres unmarked) [GT-06104, 3-(5-(4-(bis(2-fluorophenyl)methyl)piperazine-1-carbonyl)-1-oxoisoindolin-2-yl)piperidine-2,6-dione] | A (A represents 0% ≤ substrate protein remaining % ≤ 50%) |  | B (B represents substrate protein remaining % > 50%) |  | A (A represents 0% ≤ substrate protein remaining % ≤ 50%) |  |  | 10 to 50 | 100 to 500 | 500 to 1000 | < 500
O=C1CCC(N2C(=O)c3ccc(CN4CCN(C(c5cccc(F)c5)c5cccc(F)c5)CC4)cc3C2=O)C(=O)N1 (centres unmarked) [GT-06118, 5-((4-(bis(3-fluorophenyl)methyl)piperazin-1-yl)methyl)-2-(2,6-dioxopiperidin-3-yl) isoindoline-1,3-dione] | A (A represents 0% ≤ substrate protein remaining % ≤ 50%) |  | A (A represents 0% ≤ substrate protein remaining % ≤ 50%) |  | A (A represents 0% ≤ substrate protein remaining % ≤ 50%) |  | 500 to 1000 | 50 to 100 | 100 to 500 |  | 
O=C1CCC(N2Cc3cc(CN4CCC(N(c5ccccc5)c5ccccc5)CC4)cc(F)c3C2=O)C(=O)N1 (centres unmarked) [GT-06133, 3-(5-((4-(diphenylamino)piperidin-1-yl)methyl)-7-fluoro-1-oxoisoindolin-2-yl)piperidine-2,6-dione] | A (A represents 0% ≤ substrate protein remaining % ≤ 50%) |  | B (B represents substrate protein remaining % > 50%) |  | B (B represents substrate protein remaining % > 50%) |  |  | 10 to 50 | 100 to 500 | 500 to 1000 | < 500
O=C1CCC(N2C(=O)c3ccc(CN4CCN(C(c5cc(F)cc(F)c5)c5cc(F)cc(F)c5)CC4)cc3C2=O)C(=O)N1 (centres unmarked) [GT-06596, 5-((4-(bis(3,5-difluorophenyl)methyl)piperazin-1-yl)methyl)-2-(2,6-dioxopiperidin-3-yl) isoindoline-1,3-dione] | A (A represents 0% ≤ substrate protein remaining % ≤ 50%) |  | A (A represents 0% ≤ substrate protein remaining % ≤ 50%) |  | A (A represents 0% ≤ substrate protein remaining % ≤ 50%) |  | 500 to 1000 | 50 to 100 | 100 to 500 | 100 to 500 | 

Reference: patent US20250320193A1, “OXOISOINDOLINYL SUBSTITUTED PIPERIDINEDIONE DERIVATIVE AND USE THEREOF” (GLUETACS THERAPEUTICS (SHANGHAI) CO., LTD., priority 2022, published 2025)
